Measurements reported in patent US6649654B1, “Methods for identifying and using IKK inhibitors” (The Regents of the University of California, priority 1999, dated 2003).
Entries after “also recorded” stand apart in the source; their conditions may differ. Where two headings read alike, the source gives them in different places.

Tests used:
NF-κB = NF-κB activation / DNA-binding activity by EMSA in stimulated HeLa cells; format: cell-based, human; details: for effect on NF-κB activation: HeLa cells stimulated with TNFα (PGA1: IL-1 or TNFα); for IC50: Homo sapiens, HeLa cells
Experimental: Cells used in the experiments described herein were cultured in either RPMI 1640 (Jurkat cells) or DMEM (HeLa and COS cells), supplemented with 10% FBS and antibiotics. Cells were stimulated with either 25 ng/ml TPA, 20 ng/ml recombinant TNFα, or 10 ng/ml interleukin 1β (Sigma). PGA1, 15dPGJ2, T×B2, LTB4, AA and other PGs (Cayman) dissolved in ethanol were used as well, as known in the art (See e.g., Rossi et al., 94:746-750 [1997]). Controls received equal amounts of ethanol. Transfections were performed using Lipofectamine Plus (GIBCO) for HeLa and COS cells and DEAE-dextran (Sigma) for Jurkat cells. Xpress-tagged NIK, Xpress-tagged MEKK1, HA-tagged IKKα, and HA-tagged IKKβ were also used (See e.g., Zandi et al., Science 281:1360-1363 [1998]; and Delhase et al., Science 284:309-313 [1999]). COX2 and cPLA2 expression vectors were obtained from Dr. L. Feng (See also, Hirose et al., J. Am. Soc. Nephrol., 9:408-416 [1998]). PGD synthase was cloned from HT29 colon carcinoma cell line cDNA by PCR and subcloned into a pCDNA3 vector. Cells were lysed in buffer B (50 mM Tris-HCl, pH 7.5, 400 mM NaCl, 1 mM EDTA, 1 mM EGTA, 1% Triton, 0.5% NP-40, 10% glycerol, and supplemented with 20 mM β-glycerophosphate, 10 mM PNPP, […] 1 mM PMSF, 20 μg/ml aprotinin, 2.5 μg/ml leupeptin, 8.3 μg/ml bestatin, 1.7 μg/ml pepstatin, and 2 mM DTT).
Aliquots of total extracts (15 μg protein) in buffer B were incubated with a ^32P-labeled κB DNA, followed by analysis of DNA-binding activities by EMSA on 4% PAGE gels, as known in the art (See, Rossi et al., supra). Specificity of protein-DNA complexes was verified by supershift with polyclonal antibodies specific for p65 (Rel A).

Oct1 = target: T1, Oct1 (Homo sapiens, UniProt P14859); assay: Oct1 DNA binding activity; format: cell-based
T1 construct: endogenous in cells; host or cells: Jurkat (PGA1); cells of the 15dPGJ2 experiment not clearly stated
T1 sequence (P14859 1-743): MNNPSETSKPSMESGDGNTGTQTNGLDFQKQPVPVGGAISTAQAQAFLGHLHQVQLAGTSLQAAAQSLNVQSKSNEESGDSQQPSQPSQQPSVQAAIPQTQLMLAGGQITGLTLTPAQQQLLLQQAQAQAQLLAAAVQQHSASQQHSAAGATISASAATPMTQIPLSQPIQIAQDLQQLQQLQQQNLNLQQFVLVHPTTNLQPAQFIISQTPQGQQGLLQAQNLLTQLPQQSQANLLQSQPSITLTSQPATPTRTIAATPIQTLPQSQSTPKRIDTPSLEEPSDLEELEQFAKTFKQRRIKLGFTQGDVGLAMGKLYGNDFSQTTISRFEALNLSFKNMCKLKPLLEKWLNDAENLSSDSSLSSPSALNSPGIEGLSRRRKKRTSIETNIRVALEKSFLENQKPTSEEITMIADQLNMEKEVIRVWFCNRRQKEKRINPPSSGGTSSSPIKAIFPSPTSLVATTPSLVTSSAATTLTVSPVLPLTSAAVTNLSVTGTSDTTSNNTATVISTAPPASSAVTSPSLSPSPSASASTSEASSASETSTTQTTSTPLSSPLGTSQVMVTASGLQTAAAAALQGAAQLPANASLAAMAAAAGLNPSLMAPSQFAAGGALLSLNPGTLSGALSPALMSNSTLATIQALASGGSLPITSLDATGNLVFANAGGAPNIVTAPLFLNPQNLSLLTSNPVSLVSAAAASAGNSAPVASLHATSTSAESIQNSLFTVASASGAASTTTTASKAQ

Sp1 = target: T2, Sp1 (Homo sapiens, UniProt P08047); assay: Sp1 DNA binding activity; format: cell-based
T2 construct: endogenous in cells; host or cells: Jurkat (PGA1); cells of the 15dPGJ2 experiment not clearly stated
T2 sequence (P08047 whole entry): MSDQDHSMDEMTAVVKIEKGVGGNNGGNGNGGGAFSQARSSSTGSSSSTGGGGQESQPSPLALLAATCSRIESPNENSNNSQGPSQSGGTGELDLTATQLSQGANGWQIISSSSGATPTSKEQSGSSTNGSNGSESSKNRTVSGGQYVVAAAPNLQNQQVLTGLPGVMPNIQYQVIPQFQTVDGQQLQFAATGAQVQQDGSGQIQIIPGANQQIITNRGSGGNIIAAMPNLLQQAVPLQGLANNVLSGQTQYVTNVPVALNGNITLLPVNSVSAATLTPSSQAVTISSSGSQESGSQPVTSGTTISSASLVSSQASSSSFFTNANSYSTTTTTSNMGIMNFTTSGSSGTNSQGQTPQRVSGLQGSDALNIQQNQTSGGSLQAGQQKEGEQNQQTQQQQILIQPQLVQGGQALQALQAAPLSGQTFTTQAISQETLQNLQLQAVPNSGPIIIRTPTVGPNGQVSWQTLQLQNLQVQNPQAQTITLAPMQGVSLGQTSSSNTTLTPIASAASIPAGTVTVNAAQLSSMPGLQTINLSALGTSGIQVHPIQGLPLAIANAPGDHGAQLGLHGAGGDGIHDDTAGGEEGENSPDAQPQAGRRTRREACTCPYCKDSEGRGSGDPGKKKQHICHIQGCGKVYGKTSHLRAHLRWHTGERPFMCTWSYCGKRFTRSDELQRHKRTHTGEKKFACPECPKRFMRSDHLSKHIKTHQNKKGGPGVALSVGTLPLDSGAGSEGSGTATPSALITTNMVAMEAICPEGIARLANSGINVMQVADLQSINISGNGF

IKKβ(C179A) = target: T3, IKKβ(C179A) (Homo sapiens, UniProt O14920, C179A); assay: Recombinant IKKβ(C179A) (Sf9) kinase activity; format: biochemical; design: FLAG; made in house; host or cells: Sf9 (baculovirus); details: FIG. 6D; PGA1 data not shown
T3 sequence (O14920 1-756 C179A): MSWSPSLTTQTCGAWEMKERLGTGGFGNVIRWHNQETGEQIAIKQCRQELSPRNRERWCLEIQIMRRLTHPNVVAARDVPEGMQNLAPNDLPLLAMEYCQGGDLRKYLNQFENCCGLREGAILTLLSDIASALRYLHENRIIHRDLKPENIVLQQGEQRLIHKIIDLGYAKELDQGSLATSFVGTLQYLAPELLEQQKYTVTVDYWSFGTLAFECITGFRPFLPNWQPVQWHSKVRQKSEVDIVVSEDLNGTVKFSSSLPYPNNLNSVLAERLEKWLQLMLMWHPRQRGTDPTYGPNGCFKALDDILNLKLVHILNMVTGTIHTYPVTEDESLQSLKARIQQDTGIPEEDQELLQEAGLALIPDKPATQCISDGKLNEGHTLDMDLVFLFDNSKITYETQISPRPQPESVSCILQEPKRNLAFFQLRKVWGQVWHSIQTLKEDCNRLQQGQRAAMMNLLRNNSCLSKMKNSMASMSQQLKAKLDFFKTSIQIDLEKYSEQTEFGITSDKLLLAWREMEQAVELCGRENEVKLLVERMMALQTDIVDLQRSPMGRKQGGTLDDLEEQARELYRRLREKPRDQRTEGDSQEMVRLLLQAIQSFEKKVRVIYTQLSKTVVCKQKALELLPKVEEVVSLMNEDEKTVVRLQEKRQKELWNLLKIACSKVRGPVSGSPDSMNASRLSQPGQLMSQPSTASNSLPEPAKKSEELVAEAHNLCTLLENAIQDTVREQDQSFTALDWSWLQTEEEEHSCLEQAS
Experimental: In addition, recombinant IKKβ was expressed in Sf9 cells and purified as described (Zandi et al., supra). AA, PGs, LTB4, and T×B2 were added to washed imnmunoprecipitates of recombinant IKKβ in kinase buffer to a final volume of 500 μl. After 1.5 hours at 4° C., the immunoprecipitates were washed and the kinase activity determined. Western blot analysis was also performed as known in the art (See e.g., Rossi et al., supra).

SMILES	effect on NF-κB activation (NF-κB)	IC50 (NF-κB; read-out: IC50 towards NF-κB)	IC50 (NF-κB; read-out: half-maximal inhibition towards NF-κB)	effect on Oct1 DNA binding (Oct1; PGA1 (120 μM), FIG. 1A)	effect on Sp1 DNA binding (Sp1; PGA1 (120 μM), FIG. 1A)	sensitivity of recombinant IKKβ(C179A) (IKKβ(C179A))	IC50 (NF-κB; TNFα, read-out: IC50 for inhibition of NF-κB DNA binding activity)	IC50 (NF-κB; TNFα, read-out: IC50 for inhibition of NF-κB DNA-binding activity)	effect on Oct1 DNA-binding activity (Oct1; 15dPGJ2, data not shown)	effect on Sp1 DNA-binding activity (Sp1; 15dPGJ2, data not shown)
CCCCC[C@H](O)/C=C/[C@H]1C=CC(=O)C1CCCCCCC(=O)O (stereo partly drawn) [PGA1, prostaglandin A1]	prevented	65 µM	65 µM	did not inhibit; also recorded: No effects	did not inhibit; also recorded: No effects	resistant	–	–	–	–
CCCCC/C=C/C=C1/C(=O)C=C[C@@H]1C/C=C\CCCC(=O)O [15dPGJ2, 15-deoxy-Δ^12-14-PGJ2]	inhibited	–	–	–	–	resistant	2.25 µM	2.25 µM	did not inhibit	did not inhibit
